According to paper PMC4850295, “Using a Genetically Encoded Sensor to Identify Inhibitors of Toxoplasma gondii Ca^2+ Signaling” (The Journal of Biological Chemistry, 2016):

Test system: T1, GCaMP5-expressing T. gondii
T1 construct: whole extracellular parasites expressing GCaMP5 Ca2+ sensor
Parameters: species or system GCaMP5-expressing Toxoplasma gondii, extracellular; GCaMP5 fluorescence (cytosolic Ca2+) after 100 uM zaprinast in compound-pretreated extracellular parasites, background-subtracted, relative to zaprinast alone
Settings: 100 uM zaprinast stimulation; 10 min pretreatment; mean of two replicates; 0.23 h
Procedure: GCaMP5-expressing parasites were suspended in Ringer's solution at 4 × 10^7 parasites/ml, and 50 μl of parasites were applied to each well of a 96-well plate (Costar, catalog no. 3631). […] Parasites were then treated with 100 μM zaprinast or 0.1% DMSO as a vehicle control and incubated at 37 °C with 5% CO2 for an additional 4 min before measuring fluorescence with excitation and emission wavelengths of 485 and 525 nm, respectively, on a SpectraMax M3 (Molecular Devices). Basal fluorescence, measured from untreated parasites, was subtracted from all values, and results were expressed as -fold change from parasites treated only with zaprinast. Z′ factors were determined from (i) parasites treated with zaprinast versus untreated parasites and (ii) parasites treated with a final concentration of 1 μM Cpd2 or a vehicle control followed by zaprinast, using the formula, Z′ = 1 − 3(σp + σn)/(|μp − μn|), where σp and σn indicate S.D. values of positive and negative controls, and μp and μn indicate the means of positive and negative controls, respectively. […] We predicted that the zaprinast response measured in GCaMP5-expressing parasites could form the basis for a phenotypic screen. Such a screen would benefit from the known importance of Ca^2+ signaling in parasite biology along with the reported success rate of cell-based phenotypic assays. We designed a screen wherein extracellular GCaMP5-expressing parasites were pretreated with compounds for 10 min before stimulation with zaprinast, and parasite fluorescence was measured 4 min later. We expected that compounds that interfered with the zaprinast response would reduce fluorescence. We calculated a Z′-factor for this screen to determine its dynamic range and suitability to high throughput screening. To do so, we compared zaprinast-treated parasites to untreated parasites or those pretreated with the PKG inhibitor Compound 2 (Cpd2) ([55]). […] We obtained the compound libraries published kinase inhibitor sets PKIS1 ([57]) and PKIS2 (unpublished), from GlaxoSmithKline and applied our phenotypic screen to the 823 ATP mimetics represented in these collections (Fig. 2B and supplemental Table S1). The compounds were screened at a single 10 μM dose with two biological replicates.

SMILES	fold change in fluorescence relative to zaprinast alone
CC1=C(C(=O)Nc2ccc3[nH]ncc3c2)C(c2ccc(Cl)c(Cl)c2)CC(=O)N1 (centres unmarked) [GSK299115A]	1.214
O=C(Nc1cccc(-c2nn3ncccc3c2-c2ccnc(Nc3cccc(C(F)(F)F)c3)n2)c1)c1c(F)cccc1F [GSK299495A]	1.22
CS(=O)(=O)CCNCc1cc(-c2cc3c(Nc4ccc(OCc5cccc(F)c5)c(Cl)c4)ncnc3s2)cs1 [GSK300014A]	1.033
NC(=O)c1cc(-c2ccccc2)cc2c(C3CCNCC3)c[nH]c12 [GSK301362A]	1.06
O=S(=O)(c1cccc(F)c1)c1ccc(Nc2ncnc3cc(Br)sc23)cc1Cl [GSK306886A]	1.114
O=C(Nc1cccc(-c2nn3ncccc3c2-c2ccnc(Nc3cccnc3)n2)c1)c1c(F)cccc1F [GSK312879A]	1.048
COc1cc2ncn(-c3cc(OCc4cccs4)c(C(N)=O)s3)c2cc1OC [GSK312948A]	1.205
COc1ccc2ncn(-c3cc(O[C@H](C)c4ccccc4C(F)(F)F)c(C(N)=O)s3)c2c1 [GSK317315A]	0.7483
CC1=C(C(=O)Nc2ccc3[nH]ncc3c2)C(c2ccc(F)cc2)N=C(c2ccc(C(F)(F)F)nc2)N1 (centres unmarked) [GSK317354A]	1.324
COc1cc2ncn(-c3cc(OCc4ccccc4S(C)(=O)=O)c(C#N)s3)c2cc1OC [GSK319347A]	1.184
COc1cc(Nc2nccc(-c3c(-c4cccc(NC(=O)c5c(F)cccc5F)c4)nn4ccccc34)n2)cc(OC)c1OC [GSK323521A]	1.412
CS(=O)(=O)Cc1ccc(Nc2nccc(-c3c(-c4cccc(NC(=O)c5c(F)cccc5F)c4)nn4ccccc34)n2)cc1 [GSK323543A]	1.565
CCS(=O)(=O)c1ccc(OC)c(Nc2nccc(-c3c(-c4cccc(NC(=O)c5c(F)cccc5F)c4)nn4ncccc34)n2)c1 [GSK326180A]	1.656
COc1cc(Nc2nccc(-c3c(-c4cccc(NC(=O)c5c(F)cccc5F)c4)nn4ncccc34)n2)cc(OC)c1OC [GSK327238A]	1.28
NS(=O)(=O)CCc1cccc(Nc2nccc(-c3c(-c4cccc(NC(=O)c5c(F)cccc5F)c4)nn4ccccc34)n2)c1 [GSK336735A]	1.201
O=C(Nc1cccc(-c2nn3ccccc3c2-c2ccnc(Nc3cccc(F)c3)n2)c1)c1c(F)ccc(F)c1Cl [GSK357952A]	1.061
Cc1ccc(F)c(C(=O)Nc2cccc(-c3nn4ccccc4c3-c3ccnc(Nc4cccc(F)c4)n3)c2)c1F [GSK361061A]	0.9289
COc1cccc(OC)c1C(=O)Nc1cccc(-c2nn3ccccc3c2-c2ccnc(Nc3cccc(F)c3)n2)c1 [GSK361065A]	0.9782
COc1ccccc1CNC(=O)c1cc(C(=O)c2ccccc2C)c[nH]1 [GSK364507A]	1.353

SMILES	fold change in fluorescence relative to zaprinast alone
NS(=O)(=O)c1cccc(N=Cc2c(O)[nH]c3ccc(S(=O)(=O)Cc4c(Cl)cccc4Cl)cc23)c1 [GSK398099A]	1.056
CC1=C(C(=O)Nc2cc3cn[nH]c3cc2F)C(c2ccc(C(F)(F)F)cc2)CC(=O)N1 (centres unmarked) [GSK429286A]	1.046
COc1cc2ncn(-c3cc(OCc4sccc4Cl)c(C(N)=O)s3)c2cc1OC [GSK448459A]	1.439
CC1=C(C(=O)Nc2ccc3[nH]nc(C)c3c2)C(c2ccc(C(F)(F)F)cc2)CC(=O)N1 (centres unmarked) [GSK466314A]	1.189
CC1=C(C(=O)Nc2cc(Cl)c3[nH]ncc3c2)C(c2ccc(C(F)(F)F)cc2)CC(=O)N1 (centres unmarked) [GSK466317A]	1.01
C[C@@H](Oc1cc(-n2cnc3cc(-c4ccncc4)ccc32)sc1C(N)=O)c1ccccc1Cl [GSK479719A]	1.296
C[C@@H](Oc1cc(-n2cnc3ccc(-c4ccncc4)cc32)sc1C(N)=O)c1ccccc1Cl [GSK483724A]	1.04
CCn1c(-c2nonc2N)nc2c(C#CC(C)(C)O)ncc(OCCCCN)c21 [GSK507274A]	1.063
Cc1[nH]nc2ccc(-c3cc(OC[C@@H](N)Cc4ccccc4)cnc3-c3ccoc3)cc12 [GSK507358A]	0.7404
COc1cc(C2=NC(c3ccc(Cl)cc3F)C(C(=O)Nc3ccc4[nH]ncc4c3)=C(C)N2)ccn1 (centres unmarked) [GSK534911A]	1.41
COc1ccc(C2=NC(c3ccc(Cl)cc3F)C(C(=O)Nc3ccc4[nH]ncc4c3)=C(C)N2)cn1 (centres unmarked) [GSK534913A]	1.286
CCn1c(-c2nonc2N)nc2c(C#CCN)ncc(OCCCN)c21 [GSK561866B]	1.218
C[C@@H](Oc1cc(-n2cnc3ccc(OCC4CCN(C)CC4)cc32)sc1C(N)=O)c1ccccc1Cl [GSK571989A]	0.9822
C[C@@H](Oc1cc(-n2cnc3ccc(OC4CCN(C)CC4)cc32)sc1C(N)=O)c1ccccc1Cl [GSK579289A]	0.9541
C[C@@H](Oc1cc(-n2cnc3cc(-c4cnn(C)c4)ccc32)sc1C(N)=O)c1ccccc1Cl [GSK580432A]	1.313
Cc1ccc(S(=O)(=O)Nc2ccc(Nc3nccc(Nc4cccc5[nH]ncc45)n3)cc2)cc1 [GSK581271A]	0.8813
COc1ccc(-c2ccncc2)cc1C(N)=O [GSK605714A]	1.144
CCn1c(-c2nonc2N)nc2c(C#CC(C)(C)O)ncc(OC[C@@H]3CCCN3)c21 [GSK614526A]	1.198
CCn1c(-c2nonc2N)nc2c(C#CC(C)(C)O)ncc(OC3CCNCC3)c21 [GSK619487A]	1.184

SMILES	fold change in fluorescence relative to zaprinast alone
NC(=O)c1cc(-c2ccc(F)cc2)cc(-c2ccncc2)c1N [GSK620503A]	1.057
NC(=O)c1cc(-c2ccncc2)cc(-c2ccccc2)c1N [GSK625137A]	1.053
CNC(=O)c1cc(-c2ccc(F)cc2)cc(-c2ccc(S(=O)(=O)N3CCCC3)cc2)c1N [GSK635416A]	1.111
C[C@@H](Oc1cc(-n2cnc3cc(-c4ccnc(N5CCN(C)CC5)c4)ccc32)sc1C(N)=O)c1ccccc1Cl [GSK641502A]	1.062
Nc1ncc(-c2cccnc2)c2scc(-c3ccc4c(c3)CCN4C(=O)Cc3ccccc3)c12 [GSK683281A]	1.385
COc1c(C(N)=O)cc(-c2ccc(Cl)cc2)cc1-c1ccc(S(N)(=O)=O)cc1 [GSK711701A]	1.357
CCn1cc(-c2ccnc3[nH]ccc23)c(-c2cccc(NC(=O)Nc3ccc(OCc4ccccc4)cc3)c2)n1 [GSK718429A]	1.268
O=S(=O)(c1ccc(-c2ccnc3[nH]ccc23)cc1)N1CCCC1 [GSK846226A]	1.029
CCn1c(-c2nonc2N)nc2c(C#CC(C)(C)O)nc(OCCN)cc21 [GSK902056A]	1.153
C[C@@H](Oc1cc(-n2cnc3cc(-c4ccnc(NCCS(C)(=O)=O)c4)ccc32)sc1C(N)=O)c1ccccc1Cl [GSK907232A]	1.132
CCn1c(-c2nonc2N)nc2c(C#CC(C)(C)O)nc(OC[C@@H](N)c3ccccc3)cc21 [GSK938890A]	1.022
CCn1c(-c2nonc2N)nc2c(C#CC(C)(C)O)nc(OC[C@H](N)c3ccccc3)cc21 [GSK943949A]	1.114
CCn1c(-c2nonc2N)nc2c(C#CC(C)(C)O)nc(OCCNC)cc21 [GSK949675A]	1.152
NS(=O)(=O)c1ccc(-c2cc3ccncc3cc2OCc2ccccc2)cc1 [GSK953913A]	1.131
Cc1ccc(NC(=O)Nc2cccc(C(F)(F)F)c2)cc1 [GSK955403A]	0.9183
Fc1cccc(COc2ccc(Nc3ncnc4sc(-c5ccco5)cc34)cc2Cl)c1 [GSK969786A]	0.8987
NCCNS(=O)(=O)c1ccc(-c2ccnc3[nH]ccc23)cc1 [GSK977617A]	1.223
CN(C)CCNS(=O)(=O)c1ccc(-c2ccnc3[nH]ccc23)cc1 [GSK977620A]	1.218
